Test results from publication PMC6354023, “A phase I study of the HDM2 antagonist SAR405838 combined with the MEK inhibitor pimasertib in patients with advanced solid tumours” (British Journal of Cancer, 2018).
Where two headings read alike, the source gives them in different places.

Assays:
[1] = cited from earlier work
[2] = test system: MIC-1; test: MIC-1 levels in plasma by ELISA; type: in vivo, human
Experimental: MIC-1 protein concentrations were measured in plasma samples using an analytically validated enzyme-linked immunosorbent assay (Quantikine® Human GDF-15 immunoassay). pERK levels were determined by evaluating median value changes in response to ex vivo stimulation with or without phorbol myristate acetate (PMA) over time in whole-blood samples (CD 45^+ and lymphocyte populations) by flow cytometry (BD FACSCanto™ II instrument). Stimulated pERK levels were calculated as percentage (PMA-dimethylsulphoxide [DMSO])/DMSO).

[3] = Safety assessments: adverse events (NCI-CTCAE v4.03), laboratory abnormalities; type: in vivo, human; settings: of 26 treated patients, in combination
Experimental: Safety was assessed by the evaluation of AEs, DLTs, changes in vital signs, ECOG PS, physical examinations,12-lead electrocardiograms, determination of LVEF, ophthalmological examinations and clinical laboratory tests (including haematology, coagulation, blood chemistry and urinalysis).

[4] = Pharmacokinetics of SAR405838 (whole-blood concentrations) in combination; type: in vivo, human; settings: for AUC(0-t) / Cmax / half-life / Tmax: human, whole blood, oral; for AUC(0-t): read-out: SAR405838 AUC0–24, mean ± SD; for Cmax: read-out: SAR405838 Cmax, mean ± SD; for half-life: read-out: SAR405838 t1/2 (converted); for Tmax: read-out: SAR405838 tmax, median (range)
Source text: Blood samples were collected on Days 1 (for pimasertib only), 2, 3, 8 and 15 of Cycle 1, on Days 1 and 2 of Cycle 2, and on Day 1 of Cycles 3 and 4, to determine the whole-blood and plasma concentrations of SAR405838 and pimasertib, respectively.

[5] = DL1 SAR405838 200 mg QD + pimasertib 45 mg BID, C1D2
[6] = DL1 SAR405838 200 mg QD + pimasertib 45 mg BID, C2D1
[7] = DL2a SAR405838 200 mg QD + pimasertib 60 mg QD, C1D2
[8] = DL2a SAR405838 200 mg QD + pimasertib 60 mg QD, C2D1
[9] = DL2b SAR405838 300 mg QD + pimasertib 45 mg BID, C1D2
[10] = DL2b SAR405838 300 mg QD + pimasertib 45 mg BID, C2D1
[11] = DL3a SAR405838 300 mg QD + pimasertib 60 mg QD, C1D2
[12] = DL3a SAR405838 300 mg QD + pimasertib 60 mg QD, C2D1

**Q.** With `CC(C)(C)C[C@@H]1N[C@@H](C(=O)N[C@H]2CC[C@H](O)CC2)[C@H](c2cccc(Cl)c2F)[C@]12C(=O)Nc1cc(Cl)ccc12` [SAR405838] as the compound, how does the “Main dose-limiting toxicity, monotherapy” value [1] read?
**A.** thrombocytopenia

**Q.** What about the “MTD and recommended phase II dose, monotherapy” value ([1]; once daily (QD)) of the same compound?
**A.** 300 mg

**Q.** And the “Time of peak MIC-1 elevation” value ([2]; C1D2 and C2D1)?
**A.** 6 h

**Q.** And the “Greatest increase in MIC-1 in the DL1 cohort” value ([2]; patient with confirmed PR (endometrial tumour))?
**A.** 8.8 fold

**Q.** And the “MIC-1 elevation, mean vs baseline” value ([2]; plasma, all patients at C1D2 and C2D1)?
**A.** 3.5+ /− 0.8 fold

**Q.** What about the “Patients with dose modification, reduction or omission” value [3] of the same compound?
**A.** 17 patients

**Q.** And the “PK in combination compared with PK as monotherapy” value ([4]; SAR405838 and pimasertib administered in combination)?
**A.** similar

**Q.** What about the “Exposure change with dose increase (50%)” value ([4]; between DL1/DL2a (SAR405838 200 mg) and DL2b/DL3a (SAR405838 300 mg)) of the same compound?
**A.** did not result in SAR405838 exposure increase

**Q.** What about the AUC(0-t) [4, 5] of the same compound?
**A.** 19300 ng·h/mL

**Q.** What about the Cmax [4, 5] of the same compound?
**A.** 1570 ± 876 ng/mL

**Q.** And the half-life [4, 5]?
**A.** 16.1 ± 7.75 h

**Q.** And the Tmax [4, 5]?
**A.** 2 h

**Q.** And the AUC(0-t) [4, 6]?
**A.** 14600 ng·h/mL

**Q.** And the Cmax [4, 6]?
**A.** 1250 ± 668 ng/mL

**Q.** What about the half-life [4, 6] of the same compound?
**A.** 10.8 h

**Q.** And the Tmax [4, 6]?
**A.** 1.8 h

**Q.** And the AUC(0-t) [4, 7]?
**A.** 20800 ng·h/mL

**Q.** And the Cmax [4, 7]?
**A.** 1500 ± 634 ng/mL

**Q.** And the half-life [4, 7]?
**A.** 8.86 h

**Q.** What about the Tmax [4, 7] of the same compound?
**A.** 2 h

**Q.** And the AUC(0-t) [4, 8]?
**A.** 15600 ng·h/mL

**Q.** What about the Cmax [4, 8] of the same compound?
**A.** 1050 ± 581 ng/mL

**Q.** And the half-life [4, 8]?
**A.** 10 h

**Q.** What about the Tmax [4, 8] of the same compound?
**A.** 2.8 h

**Q.** What about the AUC(0-t) [4, 9] of the same compound?
**A.** 16300 ng·h/mL

**Q.** What about the Cmax [4, 9] of the same compound?
**A.** 1100 ± 547 ng/mL

**Q.** And the half-life [4, 9]?
**A.** 15.5 ± 4.33 h

**Q.** What about the Tmax [4, 9] of the same compound?
**A.** 3 h

**Q.** What about the AUC(0-t) [4, 10] of the same compound?
**A.** 15000 ng·h/mL

**Q.** What about the Cmax [4, 10] of the same compound?
**A.** 1100 ± 361 ng/mL

**Q.** And the half-life [4, 10]?
**A.** 13.4 ± 2.38 h

**Q.** And the Tmax [4, 10]?
**A.** 1.5 h

**Q.** What about the AUC(0-t) [4, 11] of the same compound?
**A.** 21400 ng·h/mL

**Q.** And the Cmax [4, 11]?
**A.** 1490 ± 939 ng/mL

**Q.** What about the half-life [4, 11] of the same compound?
**A.** 13.3 ± 4.94 h

**Q.** What about the Tmax [4, 11] of the same compound?
**A.** 4 h

**Q.** And the AUC(0-t) [4, 12]?
**A.** 21200 ng·h/mL

**Q.** And the Cmax [4, 12]?
**A.** 1440 ± 583 ng/mL

**Q.** And the half-life [4, 12]?
**A.** 14.9 ± 11.1 h

**Q.** What about the Tmax [4, 12] of the same compound?
**A.** 2 h
